Data from patent US8980325B2, “Compositions and methods for treating digestive disorders” (Revalesio Corporation, priority 2008, dated 2015).

System: glutathione peroxidase
Test: Hydrogen peroxide tests, glutathione peroxidase reactivity
Assay type: biochemical
Conditions: A340 nm, 25 degrees Celsius; low and high concentration
Method: The inventive oxygen-enriched output fluid material was tested for the presence of hydrogen peroxide by testing the reactivity with glutathione peroxidase using a standard assay (Sigma). Briefly, glutathione peroxidase enzyme cocktail was constituted in deionized water and the appropriate buffers. Water samples were tested by adding the enzyme cocktail and inverting. Continuous spectrophotometric rate determination was made at A340 nm, and room temperature (25 degrees Celsius).
Water samples were tested by adding the enzyme cocktail and inverting. Continuous spectrophotometric rate determination was made at A340 nm, and room temperature (25 degrees Celsius).

reactivity with glutathione peroxidase: strong reactivity
SMILES: OO [hydrogen peroxide]
